Assays:
A-Raf = target: T1, A-Raf (Homo sapiens, UniProt P10398); test: Kinase activity assay, A-Raf
T1 sequence (P10398 1-606): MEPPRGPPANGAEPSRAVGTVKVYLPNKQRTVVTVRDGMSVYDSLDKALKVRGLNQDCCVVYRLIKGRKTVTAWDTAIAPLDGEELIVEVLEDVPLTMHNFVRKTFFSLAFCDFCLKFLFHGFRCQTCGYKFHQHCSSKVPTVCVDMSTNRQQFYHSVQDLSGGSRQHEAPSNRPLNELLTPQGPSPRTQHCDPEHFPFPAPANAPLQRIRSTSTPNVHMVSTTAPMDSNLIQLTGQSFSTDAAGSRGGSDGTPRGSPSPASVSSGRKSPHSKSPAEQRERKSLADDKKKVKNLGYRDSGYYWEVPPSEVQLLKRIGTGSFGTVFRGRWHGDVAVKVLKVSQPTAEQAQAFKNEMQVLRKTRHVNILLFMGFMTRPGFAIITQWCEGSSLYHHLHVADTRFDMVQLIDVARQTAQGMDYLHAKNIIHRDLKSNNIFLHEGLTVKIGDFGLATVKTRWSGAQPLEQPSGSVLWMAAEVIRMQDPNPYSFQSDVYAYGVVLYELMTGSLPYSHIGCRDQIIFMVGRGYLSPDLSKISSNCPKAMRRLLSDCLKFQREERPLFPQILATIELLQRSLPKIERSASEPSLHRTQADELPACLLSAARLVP

Src = Src (Homo sapiens, UniProt P12931); test: Kinase activity assay, Src
B-Raf = B-Raf (Homo sapiens, UniProt P15056); test: Kinase activity assay, B-Raf; assay type: biochemical; conditions: read-out: activity toward kinase B-Raf, IC50
Chain of B-Raf (P15056 whole entry): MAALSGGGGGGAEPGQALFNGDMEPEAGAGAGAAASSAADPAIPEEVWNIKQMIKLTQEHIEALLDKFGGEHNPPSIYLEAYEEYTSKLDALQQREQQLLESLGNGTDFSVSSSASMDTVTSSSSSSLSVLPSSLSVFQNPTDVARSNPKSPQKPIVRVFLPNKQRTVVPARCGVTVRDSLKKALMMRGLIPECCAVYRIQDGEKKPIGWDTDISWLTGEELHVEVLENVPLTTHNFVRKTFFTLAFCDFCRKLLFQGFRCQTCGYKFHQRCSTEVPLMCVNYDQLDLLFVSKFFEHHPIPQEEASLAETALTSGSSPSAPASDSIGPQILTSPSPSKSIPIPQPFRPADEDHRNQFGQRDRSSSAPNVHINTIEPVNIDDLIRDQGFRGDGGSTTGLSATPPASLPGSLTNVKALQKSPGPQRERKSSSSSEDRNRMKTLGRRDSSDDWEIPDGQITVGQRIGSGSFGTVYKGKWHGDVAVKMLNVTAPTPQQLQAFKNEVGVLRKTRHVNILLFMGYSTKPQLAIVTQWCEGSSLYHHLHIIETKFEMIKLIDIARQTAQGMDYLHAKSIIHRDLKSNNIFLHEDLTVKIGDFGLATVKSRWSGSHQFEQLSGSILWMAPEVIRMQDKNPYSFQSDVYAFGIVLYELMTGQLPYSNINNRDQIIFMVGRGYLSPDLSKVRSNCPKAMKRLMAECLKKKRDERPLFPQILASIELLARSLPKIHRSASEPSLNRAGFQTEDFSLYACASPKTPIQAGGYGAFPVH

Kdr = Kdr (Homo sapiens, UniProt P35968); test: Kinase activity assay, Kdr
Chain of Kdr (P35968 20-1356): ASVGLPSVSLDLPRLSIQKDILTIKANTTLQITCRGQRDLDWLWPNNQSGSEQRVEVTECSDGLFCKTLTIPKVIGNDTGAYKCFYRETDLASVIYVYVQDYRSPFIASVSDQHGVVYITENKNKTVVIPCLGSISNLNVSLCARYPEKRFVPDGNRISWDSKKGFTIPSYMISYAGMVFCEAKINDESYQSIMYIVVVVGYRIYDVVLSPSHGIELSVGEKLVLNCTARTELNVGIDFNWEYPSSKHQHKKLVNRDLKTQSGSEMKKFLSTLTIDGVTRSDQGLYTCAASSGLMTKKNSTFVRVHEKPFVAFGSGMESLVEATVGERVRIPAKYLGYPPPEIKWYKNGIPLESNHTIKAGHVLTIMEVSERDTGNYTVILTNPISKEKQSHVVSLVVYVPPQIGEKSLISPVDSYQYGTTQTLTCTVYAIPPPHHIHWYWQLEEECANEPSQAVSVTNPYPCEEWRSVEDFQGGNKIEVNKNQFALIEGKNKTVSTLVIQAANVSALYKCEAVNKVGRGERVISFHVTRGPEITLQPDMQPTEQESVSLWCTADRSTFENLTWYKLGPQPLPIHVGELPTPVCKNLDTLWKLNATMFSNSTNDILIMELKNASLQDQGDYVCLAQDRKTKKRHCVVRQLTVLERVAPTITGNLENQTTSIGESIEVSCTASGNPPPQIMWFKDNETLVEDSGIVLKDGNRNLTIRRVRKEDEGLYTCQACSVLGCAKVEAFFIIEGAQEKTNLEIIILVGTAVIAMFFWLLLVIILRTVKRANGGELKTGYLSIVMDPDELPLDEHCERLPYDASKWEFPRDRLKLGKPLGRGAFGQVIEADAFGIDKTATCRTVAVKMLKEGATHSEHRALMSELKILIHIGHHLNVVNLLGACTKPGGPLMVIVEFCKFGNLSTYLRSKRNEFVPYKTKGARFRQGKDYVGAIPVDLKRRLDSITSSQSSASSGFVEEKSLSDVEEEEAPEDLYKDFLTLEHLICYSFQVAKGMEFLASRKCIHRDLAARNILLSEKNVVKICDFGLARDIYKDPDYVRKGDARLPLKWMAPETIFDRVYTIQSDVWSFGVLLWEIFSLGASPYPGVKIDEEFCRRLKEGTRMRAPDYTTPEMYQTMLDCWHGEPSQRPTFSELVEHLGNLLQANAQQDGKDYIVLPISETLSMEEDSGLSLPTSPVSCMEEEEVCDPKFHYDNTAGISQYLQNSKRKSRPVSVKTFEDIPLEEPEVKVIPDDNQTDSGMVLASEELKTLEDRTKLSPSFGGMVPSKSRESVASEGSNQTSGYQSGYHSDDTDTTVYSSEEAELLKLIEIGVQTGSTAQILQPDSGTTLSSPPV

B-Raf V600E = B-Raf V600E (Homo sapiens, UniProt P15056, V600E); test: Kinase activity assay, B-Raf V600E; assay type: biochemical; conditions: read-out: activity toward kinase B-Raf V600E, IC50
Chain of B-Raf V600E (P15056 whole entry V600E): as the sequence (P15056 whole entry) above, with V600E counted along it

C-Raf = C-Raf (Homo sapiens, UniProt P04049); test: Kinase activity assay, C-Raf
Chain of C-Raf (P04049 whole entry): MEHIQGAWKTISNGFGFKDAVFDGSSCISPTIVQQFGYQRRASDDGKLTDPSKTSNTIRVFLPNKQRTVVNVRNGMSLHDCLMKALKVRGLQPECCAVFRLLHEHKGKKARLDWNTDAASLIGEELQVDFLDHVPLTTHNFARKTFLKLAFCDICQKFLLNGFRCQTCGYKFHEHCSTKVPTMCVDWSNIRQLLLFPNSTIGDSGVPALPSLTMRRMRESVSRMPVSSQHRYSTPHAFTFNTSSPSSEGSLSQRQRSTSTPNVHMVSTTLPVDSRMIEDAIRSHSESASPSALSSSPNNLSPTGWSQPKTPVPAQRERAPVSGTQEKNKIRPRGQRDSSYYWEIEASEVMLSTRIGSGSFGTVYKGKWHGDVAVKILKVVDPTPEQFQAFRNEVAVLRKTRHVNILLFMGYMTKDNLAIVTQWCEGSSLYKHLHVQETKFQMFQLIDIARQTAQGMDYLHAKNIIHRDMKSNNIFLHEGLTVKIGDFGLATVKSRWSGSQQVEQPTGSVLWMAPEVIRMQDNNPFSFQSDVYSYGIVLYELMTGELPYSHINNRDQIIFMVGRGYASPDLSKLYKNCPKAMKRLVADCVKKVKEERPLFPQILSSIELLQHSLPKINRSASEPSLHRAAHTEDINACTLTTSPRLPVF

Kit = Kit (Homo sapiens, UniProt P10721); test: Kinase activity assay, Kit
Chain of Kit (P10721 26-976): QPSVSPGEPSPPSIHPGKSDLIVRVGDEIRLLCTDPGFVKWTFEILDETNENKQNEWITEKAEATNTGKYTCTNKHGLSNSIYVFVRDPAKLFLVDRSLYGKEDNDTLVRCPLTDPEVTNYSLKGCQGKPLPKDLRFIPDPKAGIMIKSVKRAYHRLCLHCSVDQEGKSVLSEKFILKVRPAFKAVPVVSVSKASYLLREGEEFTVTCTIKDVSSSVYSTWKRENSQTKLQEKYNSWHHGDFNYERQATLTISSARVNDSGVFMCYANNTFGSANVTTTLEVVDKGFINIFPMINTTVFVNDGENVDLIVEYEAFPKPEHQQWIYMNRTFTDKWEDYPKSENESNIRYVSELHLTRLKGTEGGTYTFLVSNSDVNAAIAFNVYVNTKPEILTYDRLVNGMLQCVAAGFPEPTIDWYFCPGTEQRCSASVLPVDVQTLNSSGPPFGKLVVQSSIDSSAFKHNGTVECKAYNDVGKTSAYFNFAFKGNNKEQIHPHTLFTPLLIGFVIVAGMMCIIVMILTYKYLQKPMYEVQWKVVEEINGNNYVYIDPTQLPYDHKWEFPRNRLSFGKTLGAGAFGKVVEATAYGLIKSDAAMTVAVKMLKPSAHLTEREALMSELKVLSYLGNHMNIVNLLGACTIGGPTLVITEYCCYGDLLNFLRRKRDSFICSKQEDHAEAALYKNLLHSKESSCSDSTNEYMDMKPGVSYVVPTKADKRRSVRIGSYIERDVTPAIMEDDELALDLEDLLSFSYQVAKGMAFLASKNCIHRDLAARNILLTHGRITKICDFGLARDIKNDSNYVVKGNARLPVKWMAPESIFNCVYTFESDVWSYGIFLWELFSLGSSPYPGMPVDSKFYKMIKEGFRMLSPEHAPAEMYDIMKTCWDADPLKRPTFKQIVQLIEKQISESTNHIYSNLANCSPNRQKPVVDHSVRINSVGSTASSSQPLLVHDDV

Fms = Fms (Homo sapiens, UniProt P07333); test: Kinase activity assay, Fms
Chain of Fms (P07333 20-972): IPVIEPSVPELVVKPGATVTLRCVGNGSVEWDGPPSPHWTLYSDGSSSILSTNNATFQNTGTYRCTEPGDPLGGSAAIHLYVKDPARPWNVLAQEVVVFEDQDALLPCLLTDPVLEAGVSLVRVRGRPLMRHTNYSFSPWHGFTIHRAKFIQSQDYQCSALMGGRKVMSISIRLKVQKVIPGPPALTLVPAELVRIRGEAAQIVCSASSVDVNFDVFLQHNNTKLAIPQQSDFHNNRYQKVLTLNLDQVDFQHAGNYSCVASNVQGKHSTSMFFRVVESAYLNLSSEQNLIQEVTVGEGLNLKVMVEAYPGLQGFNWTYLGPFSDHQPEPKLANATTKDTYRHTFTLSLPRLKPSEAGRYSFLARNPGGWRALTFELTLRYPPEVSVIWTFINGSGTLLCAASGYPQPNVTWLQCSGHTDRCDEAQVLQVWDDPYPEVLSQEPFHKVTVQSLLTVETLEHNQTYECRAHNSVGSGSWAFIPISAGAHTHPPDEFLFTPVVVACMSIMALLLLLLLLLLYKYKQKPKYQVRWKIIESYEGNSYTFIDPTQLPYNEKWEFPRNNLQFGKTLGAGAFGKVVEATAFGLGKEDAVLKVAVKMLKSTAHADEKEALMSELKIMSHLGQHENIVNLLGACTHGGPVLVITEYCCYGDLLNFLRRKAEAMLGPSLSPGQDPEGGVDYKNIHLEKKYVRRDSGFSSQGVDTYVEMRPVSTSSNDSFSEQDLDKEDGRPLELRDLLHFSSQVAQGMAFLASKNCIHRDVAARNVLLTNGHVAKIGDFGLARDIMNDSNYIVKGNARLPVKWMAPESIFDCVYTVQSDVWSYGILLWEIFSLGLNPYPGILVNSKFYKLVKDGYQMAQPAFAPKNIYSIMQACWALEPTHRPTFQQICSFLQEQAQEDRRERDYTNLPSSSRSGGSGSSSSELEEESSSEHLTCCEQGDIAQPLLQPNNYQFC

Structure (SMILES)	IC50 (A-Raf)	IC50 (Src)	IC50 (B-Raf)	IC50 (Kdr)	IC50 (B-Raf V600E)	IC50 (C-Raf)	IC50 (Kit)	IC50 (Fms)
N#Cc1ccnc2[nH]cc(C(=O)c3c(F)ccc(NS(=O)(=O)c4cccc(F)c4)c3F)c12 [P-2039, N-[3-(4-Cyano-1H-pyrrolo[2,3-b]pyridine-3-carbonyl)-2,4-difluoro-phenyl]-3-fluoro-benzenesulfonamide]	≤ 10 µM	≤ 10 µM	≤ 10 µM	–	≤ 10 µM	≤ 10 µM	≤ 10 µM	–
CCCS(=O)(=O)Nc1ccc(F)c(C(=O)c2c[nH]c3nccc(C#N)c23)c1F [P-2209, Propane-1-sulfonic acid [3-(4-cyano-1H-pyrrolo[2,3-b]pyridine-3-carbonyl)-2,4-difluoro-phenyl]-amide]	≤ 10 µM	≤ 10 µM	≤ 10 µM	≤ 10 µM	≤ 10 µM	≤ 10 µM	≤ 10 µM	–
COc1cnc2[nH]cc(C(=O)c3c(F)ccc(NS(=O)(=O)CC(C)C)c3F)c2c1 [P-2303, 2-Methyl-propane-1-sulfonic acid [2,4-difluoro-3-(5-methoxy-1H-pyrrolo[2,3-b]pyridine-3-carbonyl)-phenyl]-amide]	≤ 10 µM	≤ 10 µM	≤ 10 µM	≤ 10 µM	≤ 10 µM	≤ 10 µM	≤ 10 µM	–
Cc1cnc2[nH]cc(C(=O)c3c(F)ccc(NS(=O)(=O)CC(C)C)c3F)c2c1 [P-2305, 2-Methyl-propane-1-sulfonic acid [2,4-difluoro-3-(5-methyl-1H-pyrrolo[2,3-b]pyridine-3-carbonyl)-phenyl]-amide]	≤ 10 µM	≤ 10 µM	≤ 10 µM	≤ 10 µM	≤ 10 µM	≤ 10 µM	≤ 10 µM	–
CC(C)CS(=O)(=O)Nc1ccc(F)c(C(=O)c2c[nH]c3nccc(Cl)c23)c1F [P-2318, 2-Methyl-propane-1-sulfonic acid [3-(4-chloro-1H-pyrrolo[2,3-b]pyridine-3-carbonyl)-2,4-difluoro-phenyl]-amide]	≤ 10 µM	≤ 10 µM	≤ 10 µM	–	≤ 10 µM	≤ 10 µM	≤ 10 µM	–
Cc1cnc2[nH]cc(C(=O)c3c(F)ccc(NS(=O)(=O)N4CCOCC4)c3F)c2c1 [P-2392, Morpholine-4-sulfonic acid [2,4-difluoro-3-(5-methyl-1H-pyrrolo[2,3-b]pyridine-3-carbonyl)-phenyl]-amide]	≤ 10 µM	≤ 10 µM	–	–	≤ 10 µM	≤ 10 µM	≤ 10 µM	–
N#Cc1cnc2[nH]cc(C(=O)c3c(F)ccc(NS(=O)(=O)N4CCOCC4)c3F)c2c1 [P-2393, Morpholine-4-sulfonic acid [3-(5-cyano-1H-pyrrolo[2,3-b]pyridine-3-carbonyl)-2,4-difluoro-phenyl]-amide]	≤ 10 µM	≤ 10 µM	≤ 10 µM	–	≤ 10 µM	≤ 10 µM	≤ 10 µM	–
O=C(c1c(F)ccc(NS(=O)(=O)N2CCCC2)c1F)c1c[nH]c2nccc(Cl)c12 [P-2398, Pyrrolidine-1-sulfonic acid [3-(4-chloro-1H-pyrrolo[2,3-b]pyridine-3-carbonyl)-2,4-difluoro-phenyl]-amide]	≤ 10 µM	≤ 10 µM	≤ 10 µM	≤ 10 µM	≤ 10 µM	≤ 10 µM	≤ 10 µM	–
CCCS(=O)(=O)Nc1ccc(F)c(C(=O)c2c[nH]c3ncccc23)c1 [P-2437, Propane-1-sulfonic acid [4-fluoro-3-(1H-pyrrolo[2,3-b]pyridine-3-carbonyl)-phenyl]-amide]	≤ 10 µM	–	–	≤ 10 µM	≤ 10 µM	–	–	≤ 10 µM

Second part, the compound after the results:

IC50 (A-Raf)	IC50 (Src)	IC50 (B-Raf)	IC50 (Kdr)	IC50 (B-Raf V600E)	IC50 (C-Raf)	IC50 (Kit)	IC50 (Fms)	Structure (SMILES)
≤ 10 µM	≤ 10 µM	≤ 10 µM	≤ 10 µM	≤ 10 µM	≤ 10 µM	≤ 10 µM	–	N#Cc1ccnc2[nH]cc(C(=O)c3c(F)ccc(NS(=O)(=O)c4c(F)cccc4F)c3F)c12 [P-2037, N-[3-(4-Cyano-1H-pyrrolo[2,3-b]pyridine-3-carbonyl)-2,4-difluoro-phenyl]-2,6-difluoro-benzenesulfonamide]
≤ 10 µM	≤ 10 µM	≤ 10 µM	≤ 10 µM	≤ 10 µM	≤ 10 µM	≤ 10 µM	–	N#Cc1ccnc2[nH]cc(C(=O)c3c(F)ccc(NS(=O)(=O)c4ccc(F)cc4F)c3F)c12 [P-2038, N-[3-(4-Cyano-1H-pyrrolo[2,3-b]pyridine-3-carbonyl)-2,4-difluoro-phenyl]-2,4-difluoro-benzenesulfonamide]
≤ 10 µM	–	≤ 10 µM	≤ 10 µM	–	–	≤ 10 µM	≤ 10 µM	O=C(c1cc(NS(=O)(=O)c2ccc(Cl)cc2)ccc1F)c1c[nH]c2ncccc12 [P-2113, 4-Chloro-N-[4-fluoro-3-(1H-pyrrolo[2,3-b]pyridine-3-carbonyl)-phenyl]-benzenesulfonamide]
≤ 10 µM	–	–	≤ 10 µM	–	–	≤ 10 µM	≤ 10 µM	O=C(c1cc(NS(=O)(=O)c2cccc(C(F)(F)F)c2)ccc1F)c1c[nH]c2ncccc12 [P-2115, N-[4-Fluoro-3-(1H-pyrrolo[2,3-b]pyridine-3-carbonyl)-phenyl]-3-trifluoromethyl-benzenesulfonamide]
≤ 10 µM	–	≤ 10 µM	–	–	≤ 10 µM	≤ 10 µM	≤ 10 µM	O=C(c1cc(NS(=O)(=O)c2ccc(OC(F)(F)F)cc2)ccc1F)c1c[nH]c2ncccc12 [P-2116, N-[4-Fluoro-3-(1H-pyrrolo[2,3-b]pyridine-3-carbonyl)-phenyl]-4-trifluoromethoxy-benzenesulfonamide]
≤ 10 µM	≤ 10 µM	≤ 10 µM	≤ 10 µM	≤ 10 µM	≤ 10 µM	≤ 10 µM	–	CCCS(=O)(=O)Nc1ccc(F)c(C(=O)c2c[nH]c3ncc(C(=O)NOC)cc23)c1F [P-2238, 3-[2,6-Difluoro-3-(propane-1-sulfonylamino)-benzoyl]-1H-pyrrolo[2,3-b]pyridine-5-carboxylic acid methoxy-amide]
≤ 10 µM	–	–	–	–	≤ 10 µM	≤ 10 µM	≤ 10 µM	CC(C)CS(=O)(=O)Nc1ccc(F)c(C(=O)c2c[nH]c3ncc(-c4ccc(Cl)cc4)cc23)c1F [P-2297, 2-Methyl-propane-1-sulfonic acid {3-[5-(4-chloro-phenyl)-1H-pyrrolo[2,3-b]pyridine-3-carbonyl]-2,4-difluoro-phenyl}-amide]
≤ 10 µM	≤ 10 µM	–	≤ 10 µM	≤ 10 µM	≤ 10 µM	≤ 10 µM	–	CCC(C)S(=O)(=O)Nc1ccc(F)c(C(=O)c2c[nH]c3nccc(Cl)c23)c1F (centres unmarked) [P-2319, Butane-2-sulfonic acid [3-(4-chloro-1H-pyrrolo[2,3-b]pyridine-3-carbonyl)-2,4-difluoro-phenyl]-amide]
≤ 10 µM	≤ 10 µM	≤ 10 µM	–	≤ 10 µM	≤ 10 µM	≤ 10 µM	–	N#Cc1ccnc2[nH]cc(C(=O)c3c(F)ccc(NS(=O)(=O)CC(F)(F)F)c3F)c12 [P-2341, 2,2,2-Trifluoro-ethanesulfonic acid [3-(4-cyano-1H-pyrrolo[2,3-b]pyridine-3-carbonyl)-2,4-difluoro-phenyl]-amide]
≤ 10 µM	≤ 10 µM	–	≤ 10 µM	≤ 10 µM	≤ 10 µM	≤ 10 µM	–	Cc1cnc2[nH]cc(C(=O)c3c(F)ccc(NS(=O)(=O)C4CCCC4)c3F)c2c1 [P-2365, Cyclopentanesulfonic acid [2,4-difluoro-3-(5-methyl-1H-pyrrolo[2,3-b]pyridine-3-carbonyl)-phenyl]-amide]
≤ 10 µM	≤ 10 µM	≤ 10 µM	–	≤ 10 µM	≤ 10 µM	≤ 10 µM	–	N#Cc1ccnc2[nH]cc(C(=O)c3c(F)ccc(NS(=O)(=O)C4CCCCC4)c3F)c12 [P-2369, Cyclohexanesulfonic acid [3-(4-cyano-1H-pyrrolo[2,3-b]pyridine-3-carbonyl)-2,4-difluoro-phenyl]-amide]
≤ 10 µM	≤ 10 µM	≤ 10 µM	≤ 10 µM	≤ 10 µM	≤ 10 µM	≤ 10 µM	–	COc1cnc2[nH]cc(C(=O)c3c(F)ccc(NS(=O)(=O)N4CCCC4)c3F)c2c1 [P-2374, Pyrrolidine-1-sulfonic acid [2,4-difluoro-3-(5-methoxy-1H-pyrrolo[2,3-b]pyridine-3-carbonyl)-phenyl]-amide]
